Results: US20140090094A1, “MODULATORS OF SLC22A7” (BAYER INTELLECTUAL PROPERTY GmbH, priority 2011, published 2014)

T1: OAT2r (Rattus norvegicus, UniProt Q5RLM2)
T1 construct: expressed in transfected cells
T1 sequence (Q5RLM2 1-535): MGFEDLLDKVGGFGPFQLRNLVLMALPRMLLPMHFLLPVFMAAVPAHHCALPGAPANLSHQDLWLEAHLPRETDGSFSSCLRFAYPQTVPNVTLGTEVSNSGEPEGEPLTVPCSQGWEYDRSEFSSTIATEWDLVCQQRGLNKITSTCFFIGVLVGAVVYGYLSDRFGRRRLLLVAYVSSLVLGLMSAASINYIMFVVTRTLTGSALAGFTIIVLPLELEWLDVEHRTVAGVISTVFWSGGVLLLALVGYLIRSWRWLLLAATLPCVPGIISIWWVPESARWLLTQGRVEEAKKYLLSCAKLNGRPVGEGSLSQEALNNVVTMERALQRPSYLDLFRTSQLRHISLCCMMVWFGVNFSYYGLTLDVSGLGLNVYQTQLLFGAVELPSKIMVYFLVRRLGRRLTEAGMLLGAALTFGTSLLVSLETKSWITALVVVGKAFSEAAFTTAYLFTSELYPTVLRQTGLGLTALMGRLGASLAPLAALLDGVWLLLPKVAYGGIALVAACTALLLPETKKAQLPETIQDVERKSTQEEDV

T2: OAT2h (Homo sapiens, UniProt Q9Y694)
T2 construct: expressed in transfected cells; host or cells: 293 cells (HEK-293), pEBTetD/OAT2h, doxycycline-inducible
T2 sequence (Q9Y694 1-546 isoform Q9Y694-2): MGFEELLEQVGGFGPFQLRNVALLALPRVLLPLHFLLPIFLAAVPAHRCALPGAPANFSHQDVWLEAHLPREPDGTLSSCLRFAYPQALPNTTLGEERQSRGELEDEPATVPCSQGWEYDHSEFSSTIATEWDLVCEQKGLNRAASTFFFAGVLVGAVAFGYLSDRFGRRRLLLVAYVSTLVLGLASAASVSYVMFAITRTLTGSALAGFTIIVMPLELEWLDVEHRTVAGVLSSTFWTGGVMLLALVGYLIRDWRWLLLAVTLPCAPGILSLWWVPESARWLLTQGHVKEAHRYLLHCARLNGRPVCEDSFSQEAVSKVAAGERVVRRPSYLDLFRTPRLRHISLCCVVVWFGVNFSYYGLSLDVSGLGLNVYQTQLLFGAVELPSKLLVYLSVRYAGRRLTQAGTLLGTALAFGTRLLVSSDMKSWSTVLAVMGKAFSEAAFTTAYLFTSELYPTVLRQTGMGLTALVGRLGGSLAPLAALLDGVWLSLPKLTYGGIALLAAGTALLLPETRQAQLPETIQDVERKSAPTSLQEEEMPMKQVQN


Experiments:
[1] = target: T1, OAT2r; assay: 1 min uptake into 293 cells expressing OAT2 from rat; type: cell-based; conditions: 1 min uptake, 0.1 μmol/l radiotracer or 10 μmol/l unlabeled compound;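 note: uptake at 37 °C, read by liquid scintillation counting or LC-ESI-MS/MS, carrier-mediated part as induced-minus-uninduced expression difference corrected for baseline content, protein by BCA assay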
Experimental: (§1) Cells were used for uptake experiments at a confluence of at least 70%. Uptake was measured at 37° C. […] After preincubation for at least 20 minutes in 4 ml of uptake buffer, the buffer was replaced with 2 ml of substrate in uptake buffer. The total substrate concentration if not indicated otherwise was 0.1 μmol/l for radiotracer assays and 10 μmol/l for unlabeled compounds. Incubation was stopped after 1 min by rinsing the cells four times each with 4 ml ice-cold uptake buffer. Radioactivity was determined, after cell lysis with 0.1% v/v Triton X-100 in 5 mmol/l TRIS-HCl pH 7.4, by liquid scintillation counting. For LCelectrospray ionization-MS/MS analysis, cells were lysed with methanol and stored at −20° C.
(§2) After centrifugation (1 min, 16000×g, 20° C.) of thawed lysates, 100 μl of the supernatant was mixed with either 10 μl unlabeled MPP+ iodide (0.5 ng/μl) or biphenyl-4-carboxylic acid (Sigma-Aldrich) as internal standard. […] Atmospheric pressure ionization with positive or negative electrospray was used. For quantification (scan time 150 ms), the optimal collision energy for argon-induced fragmentation in the second quadrupole was determined for each analyte. […] Linear calibration curves were constructed from at least six standards which were prepared using control cell lysates as solvent. Sample analyte content was calculated from the analyte response ratio and the slope of the calibration curve, obtained by linear regression. With LC-MS quantitation, solute content of cell lysates was determined for 4 conditions (paired dishes, incubation time 1 min): a) transporter expression on, uptake buffer; b) expression off, uptake buffer; c) expression on, substrate in uptake buffer; d) expression off, substrate in uptake buffer. Acute uptake mediated by heterologously expressed carrier was then calculated as (c−a)−(d−b). This approach takes into account endogenous solute content and non-specific uptake. Protein was measured by the BCA assay (Pierce) with bovine serum albumin as standard. The protein content of MS samples was estimated from 3 matched cell dishes.

[2] = target: T1, OAT2r; assay: 24 h accumulation in lysates of OAT2r-expressing versus control cells (LC-MS/MS); type: cell-based; conditions: for increase in OAT2r cell lysates versus control cells (factor f): 24 h incubation, compound at 100 μmol/l
Experimental: A substrate search by LC-MS difference shading was performed with 293 cells stably transfected to express OAT2 from rat. […] To verify that trigonelline is directly transported by OAT2 and not just increased indirectly, initial rates of uptake (1 min, 37° C.) of trigonelline (10 μmol/l) were determined by LC-MS/MS.
With trigonelline as substrate lead, compounds wholly or partly related in structure were analyzed for transport by OAT2 from rat.
After centrifugation (1 min, 16000×g, 20° C.) of thawed lysates, 100 μl of the supernatant was mixed with either 10 μl unlabeled MPP+ iodide (0.5 ng/μl) or biphenyl-4-carboxylic acid (Sigma-Aldrich) as internal standard. Of this mixture, […] were analyzed by LCMS/MS on a triple quadrupole mass spectrometer (4000 Q TRAP, Applied Biosystems, Darmstadt, Germany). […] Atmospheric pressure ionization with positive or negative electrospray was used. For quantification (scan time 150 ms), the optimal collision energy for argon-induced fragmentation in the second quadrupole was determined for each analyte. […] Linear calibration curves were constructed from at least six standards which were prepared using control cell lysates as solvent. Sample analyte content was calculated from the analyte response ratio and the slope of the calibration curve, obtained by linear regression. With LC-MS quantitation, solute content of cell lysates was determined for 4 conditions ([…]): a) transporter expression on, uptake buffer; b) expression off, uptake buffer; c) expression on, substrate in uptake buffer; d) expression off, substrate in uptake buffer. Acute uptake mediated by heterologously expressed carrier was then calculated as (c−a)−(d−b). This approach takes into account endogenous solute content and non-specific uptake. Protein was measured by the BCA assay (Pierce) with bovine serum albumin as standard. The protein content of MS samples was estimated from 3 matched cell dishes.

[3] = target: T2, OAT2h; assay: 1 min uptake into 293 cells expressing OAT2 from human; type: cell-based; conditions: radiotracer
Experimental: as §1, §2

[4] = target: T1, OAT2r; assay: trans-stimulation of efflux of 3H-orotic acid via OAT2r; type: cell-based; conditions: 1 mmol/l compound in uptake buffer, 1 min, preloaded cells
[5] = substrate: O=C(O)c1cc(=O)[nH]c(=O)[nH]1; assay: cells, lysate or membranes; conditions: other: saturation of OAT2r-mediated uptake, 1 min

Row | Molecule | transport by OAT2r (in words) [1] | increase in OAT2r cell lysates versus control cells (factor f) [2] | further results
1 | C[n+]1cccc(C(N)=O)c1 [1-methylnicotinamide] | no transport | – | –
2 | Nc1ccccc1C(=O)O [2-aminobenzoic acid] | no transport | 1.1 | –
3 | CCN(CC)CCC(=O)O [3-(diethylamino)propionic acid] | – | 1.1 | –
4 | Nc1cccc(C(=O)O)c1 [3-aminobenzoic acid] | no transport | 1.4 | –
5 | NC(=O)CC[C@H](N)C(=O)O [3H-glutamine, glutamine] | – | – | uptake by OAT2h (in words) [3]: no uptake
6 | Nc1ccc(C(=O)O)cc1 [4-aminobenzoic acid] | no transport | 1.1 | –
7 | NCC(=O)CCC(=O)O [5-aminolevulinic acid] | no transport | – | –
8 | O=C(O)c1[nH]c(=O)[nH]c(=O)c1F [5-fluoroorotic acid] | transported efficiently | – | –
9 | O=C1CC[C@@H](C(=O)O)N1 [5-oxoproline] | no transport | – | –
10 | C[N+](C)(C)C[C@H](O)CC(=O)[O-] [L-carnitine] | – | 1.0 | –
11 | O=C1C[C@@H](C(=O)O)NC(=O)N1 [L-dihydroorotic acid] | no transport | – | –
12 | O=C(O)[C@@H]1CCCN1 [L-proline] | no transport | – | –
13 | O=C(O)c1cccnc1C(=O)O [Quinolinic acid] | – | 2.7 | difference in lysate content between OAT2r and control cells (in words) ([2]; up to 1 h incubation time): virtually no difference
14 | O=C1CC(=O)NC(=O)N1 [barbituric acid] | no transport | – | –
15 | CN(CC(=O)O)C(=N)N [creatine] | no transport | – | –
16 | CC1=NCC[C@@H](C(=O)O)N1 [ectoine] | – | 1.2 | –

Row | Molecule | transport by OAT2r (in words) [1] | increase in OAT2r cell lysates versus control cells (factor f) [2] | further results
17 | NCC1(CC(=O)O)CCCCC1 [gabapentin] | – | 1.2 | –
18 | C[N+](C)(C)CC(=O)[O-] [glycine betaine] | – | 1.0 | –
19 | N=C(N)NCC(=O)O [guanidinoacetic acid] | no transport | – | –
20 | O=C(O)CC1NC(=O)NC1=O (stereo not shown) [hydantoin-5-acetic acid] | no transport | – | –
21 | O=C(O)c1c[nH]c(=O)[nH]c1=O [isoorotic acid] | transported efficiently | – | –
22 | O=C(O)c1cc(=O)c2ccccc2[nH]1 [kynurenic acid] | no transport | – | –
23 | CC(O)C(=O)O (stereo not shown) [lactate] | – | – | trans-stimulation of efflux of 3H-orotic acid (in words) [4]: rejects
24 | O=C(O)CC(O)C(=O)O (stereo not shown) [malate] | – | – | trans-stimulation of efflux of 3H-orotic acid (in words) [4]: rejects
25 | NC(=O)c1cccnc1 [nicotinamide] | no transport | no significant increase | –
26 | O=C(O)c1ccc[n+]([C@@H]2O[C@H](COP(=O)(O)O)[C@@H](O)[C@H]2O)c1 [nicotinic acid mononucleotide] | no transport | – | –
27 | O=C([O-])c1ccc[n+]([C@@H]2O[C@H](CO)[C@@H](O)[C@H]2O)c1 [nicotinic acid riboside] | transported slightly more efficiently than trigonelline | – | –
28 | O=C(O)c1cccnc1 [nicotinic acid] | no transport | no significant increase | –
29 | Cc1cc2nc3c(=O)[nH]c(=O)nc-3n(C[C@H](O)[C@H](O)[C@H](O)CO)c2cc1C [riboflavin] | no transport | 1.2 | –
30 | C[N+]1(C)CCC[C@H]1C(=O)[O-] [stachydrine] | no transport | 1.2 | –
31 | Cc1ncc(C[n+]2csc(CCO)c2C)c(N)n1 [thiamine] | no transport | – | –
32 | OAT2r (Rattus norvegicus) (protein) MGFEDLLDKVGGFGPFQLRNLVLMALPRMLLPMHFLLPVFMAAVPAHHCALPGAPANLSHQDLWLEAHLPRETDGSFSSCLRFAYPQTVPNVTLGTEVSNSGEPEGEPLTVPCSQGWEYDRSEFSSTIATEWDLVCQQRGLNKITSTCFFIGVLVGAVVYGYLSDRFGRRRLLLVAYVSSLVLGLMSAASINYIMFVVTRTLTGSALAGFTIIVLPLELEWLDVEHRTVAGVISTVFWSGGVLLLALVGYLIRSWRWLLLAATLPCVPGIISIWWVPESARWLLTQGRVEEAKKYLLSCAKLNGRPVGEGSLSQEALNNVVTMERALQRPSYLDLFRTSQLRHISLCCMMVWFGVNFSYYGLTLDVSGLGLNVYQTQLLFGAVELPSKIMVYFLVRRLGRRLTEAGMLLGAALTFGTSLLVSLETKSWITALVVVGKAFSEAAFTTAYLFTSELYPTVLRQTGLGLTALMGRLGASLAPLAALLDGVWLLLPKVAYGGIALVAACTALLLPETKKAQLPETIQDVERKSTQEEDV | – | – | Km [5]: 200 (95% confidence interval: 160-240) μmol/l
